These results are taken from patent US20210221785A1, “AMINO-PYRIMIDONYL DERIVATIVES, A PROCESS FOR THEIR PREPARATION AND PHARMACEUTICAL COMPOSITIONS CONTAINING THEM” (LES LABORATOIRES SERVIER, priority 2018, published 2021).

Assay [1] deals with T1, His-His-USP7 (aa208-560, |C315A|) (Homo sapiens, UniProt Q93009, C315A).
T1 construct: His-His-USP7 (aa208-560, |C315A|); His-His (N)
In words: Evaluation of the inhibition of USP7 by the Fluorescence Intensity (FLINT) readings. In kind it is biochemical. The note with it: 0.25 nM His-His-USP7, compound incubated 60 minutes at 30° C., 500 nM Ubiquitin-Rhodamine-110 substrate; 50% reduction in kinetic rate. Put shortly: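 IC50 reflects 50% reduction in kinetic rate of rhodamine-110 release (Ex485/Em535, reads every 3 min over 21 min), normalised to DMSO and no-enzyme controls, from an 11-point 4-parameter fit. Substrate is 500 nM Ub-Rh110, added after 60 min, 30 °C preincubation of compound with 0.25 nM USP7 aa208–560 C315A. Buffer is Bicine pH 8.0 with 10% DMSO.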

Assay [2] has as its system Z138 mantle cell lymphoma tumour cell lines. The assay can be described thus: In vitro cytotoxicity, MTT assay. In kind it is cell-based. Conditions: Homo sapiens, Z-138, 96 h, Z138 cells exposed to the test compounds for 96 hours; cell viability vs DMSO treated cells. Put shortly: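 Z138 cells exposed to compounds for 96 hours, then MTT added for 4 hours. Viable cells quantified from formazan absorbance at 540 nm.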
In general terms: Tetrazolium dyes change colour on reduction, which living cells bring about.

As usually defined, the IC50 is the concentration needed to halve the response being measured.

SMILES strings stand for the structures.

T1 sequence (Q93009 208-560 C315A): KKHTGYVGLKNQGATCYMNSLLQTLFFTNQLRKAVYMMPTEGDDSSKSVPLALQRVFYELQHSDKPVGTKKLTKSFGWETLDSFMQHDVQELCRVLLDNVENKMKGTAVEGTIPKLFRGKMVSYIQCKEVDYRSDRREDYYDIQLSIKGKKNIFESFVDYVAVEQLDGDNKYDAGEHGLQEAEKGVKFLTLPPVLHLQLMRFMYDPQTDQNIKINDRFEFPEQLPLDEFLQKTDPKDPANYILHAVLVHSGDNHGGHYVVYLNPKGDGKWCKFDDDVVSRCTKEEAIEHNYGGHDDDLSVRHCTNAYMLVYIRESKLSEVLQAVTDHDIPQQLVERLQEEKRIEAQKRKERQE

In the case of `Nc1c(Oc2ccc(F)cc2)ncn(C[C@@]2(O)CCN(C(=O)[C@@H]3CC[C@](F)(C#Cc4ncccn4)C[C@H]3c3ccccc3)CC2(F)F)c1=O` [Example 167, 5-amino-3-{[(4S)-3,3-difluoro-1-[(1R,2R,4R)-4-fluoro-2-phenyl-4-[2-(pyrimidin-2-yl)ethynyl]cyclohexanecarbonyl]-4-hydroxypiperldin-4-yl]methyl}-6-(4-fluorophenoxy)-3,4-dihydropyrimidin-4-one], the IC50 is 27.2 nM in assay [1] and 0.0124 µM in assay [2].
For `Nc1c(Oc2ccc(F)cc2)ncn(C[C@@]2(O)CCN(C(=O)[C@@H]3CC[C@](F)(C#Cc4cccnn4)C[C@H]3c3ccccc3)CC2(F)F)c1=O` [Example 168, 5-amino-3-{[(4S)-3,3-difluoro-1-{[(1R,2R,4R)-4-fluoro-2-phenyl-4-[2-(pyridazin-3-yl)ethynyl]cyclohexyl]carbonyl}-4-hydroxypiperidin-4-yl]methyl}-6-(4-fluorophenoxy)pyrimidin-4-one], the IC50 was 3.48 nM in assay [1] and 0.00157 µM in assay [2].
For `CO[C@@H]1CC[C@@](C#Cc2cc(C)cnn2)(C(=O)N2CC[C@](O)(Cn3cnc(Oc4ccc(F)cc4)c(N)c3=O)C(F)(F)C2)[C@@H](c2ccccc2)C1` [Example 169, 5-amino-3-{[(4S)-3,3-difluoro-4-hydroxy-1-[(1R,2R,4R)-4-methoxy-1-[2-(5-methylpyridazin-3-yl)ethynyl]-2-phenylcyclohexanecarbonyl]piperidin-4-yl]methyl}-6-(4-fluorophenoxy)-3,4-dihydropyrimidin-4-one] the same measures were 8.8 nM and 0.00218 µM.
Consider `CO[C@]1(C#Cc2nnccc2C)CC[C@@H](C(=O)N2CC[C@](O)(Cn3cnc(Oc4ccc(F)cc4)c(N)c3=O)C(F)(F)C2)[C@H](c2ccccc2)C1` [Example 170, 5-amino-3-{[(4S)-3,3-difluoro-4-hydroxy-1-[(1R,2R,4R)-4-methoxy-4-[2-(4-methylpyridazin-3-yl)ethynyl]-2-phenylcyclohexanecarbonyl]piperidin-4-yl]methyl}-6-(4-fluorophenoxy)-3,4-dihydropyrimidin-4-one], for which the IC50 in assay [1] is 39.8 nM; in assay [2] it was 0.0219 µM.
On the same counts, the results for `Cc1ccnnc1C#C[C@@]1(F)CC[C@@H](C(=O)N2CC[C@](O)(Cn3cnc(Oc4ccc(F)cc4)c(N)c3=O)C(F)(F)C2)[C@H](c2ccccc2)C1` [Example 171, 5-amino-3-{[(4S)-3,3-difluoro-1-[(1R,2R,4R)-4-fluoro-4-[2-(4-methylpyridazin-3-yl)ethynyl]-2-phenylcyclohexanecarbonyl]-4-hydroxypiperidin-4-yl]methyl}-6-(4-fluorophenoxy)-3,4-dihydropyrimidin-4-one] are 23.8 nM and 0.0168 µM.
Turning to `Cc1cnnc(C#C[C@@]2(F)CC[C@@H](C(=O)N3CC[C@](O)(Cn4cnc(Oc5ccc(F)cc5)c(N)c4=O)C(F)(F)C3)[C@H](c3ccccc3)C2)c1` [Example 172, 5-amino-3-{[(4S)-3,3-difluoro-1-[(1R,2R,4R)-4-fluoro-4-[2-(5-methylpyridazin-3-yl)ethynyl]-2-phenylcyclohexanecarbonyl]-4-hydroxypiperidin-4-yl]methyl}-6-(4-fluorophenoxy)-3,4-dihydropyrimidin-4-one], the IC50 in assay [1] came out at 5.5 nM; in assay [2] it was 0.00501 µM.
For `COc1cnnc(C#C[C@@]2(OC)CC[C@@H](C(=O)N3CC[C@](O)(Cn4cnc(Oc5ccc(F)cc5)c(N)c4=O)C(F)(F)C3)C(c3ccccc3)C2)c1` (stereo partly drawn) [Example 173, 5-amino-3-{[(4S)-3,3-difluoro-4-hydroxy-1-[(1R,4R)-4-methoxy-4-[2-(5-methoxypyridazin-3-yl)ethynyl]-2-phenylcyclohexanecarbonyl]piperidin-4-yl]methyl}-6-(4-fluorophenoxy)-3,4-dihydropyrimidin-4-one] the same measures were 14.6 nM and 0.00521 µM.
For `CO[C@]1(C#Cc2ncc(C)cn2)CC[C@@H](C(=O)N2CC[C@](O)(Cn3cnc(Oc4ccc(F)cc4)c(N)c3=O)C(F)(F)C2)[C@H](c2ccccc2)C1` [Example 174, 5-amino-3-{[(4S)-3,3-difluoro-4-hydroxy-1-[(1R,2R,4R)-4-methoxy-4-[2-(5-methylpyrimidin-2-yl)ethynyl]-2-phenylcyclohexanecarbonyl]piperidin-4-yl]methyl}-6-(4-fluorophenoxy)-3,4-dihydropyrimidin-4-one] the same measures were 67.7 nM and 0.0174 µM.
For `CO[C@]1(C#Cc2cncnc2)CC[C@@H](C(=O)N2CC[C@](O)(Cn3cnc(Oc4ccc(F)cc4)c(N)c3=O)C(F)(F)C2)[C@H](c2ccccc2)C1` [Example 175, 5-amino-3-{[(4S)-3,3-difluoro-4-hydroxy-1-[(1R,2R,4R)-4-methoxy-2-phenyl-4-[2-(pyrimidin-5-yl)ethynyl]cyclohexanecarbonyl]piperidin-4-yl]methyl}-6-(4-fluorophenoxy)-3,4-dihydropyrimidin-4-one] the same measures were 54 nM and 0.00998 µM.
For `CO[C@]1(C#Cc2nccc(C)n2)CC[C@@H](C(=O)N2CC[C@](O)(Cn3cnc(Oc4ccc(F)cc4)c(N)c3=O)C(F)(F)C2)[C@H](c2ccccc2)C1` [Example 176, 5-amino-3-{[(4S)-3,3-difluoro-4-hydroxy-1-[(1R,2R,4R)-4-methoxy-4-[2-(4-methylpyrimidin-2-yl)ethynyl]-2-phenylcyclohexanecarbonyl]piperidin-4-yl]methyl}-6-(4-fluorophenoxy)-3,4-dihydropyrimidin-4-one], the IC50 in assay [1] is 77.2 nM; in assay [2], 0.037 µM.
For `CO[C@]1(C#Cc2cnc(C)nc2)CC[C@@H](C(=O)N2CC[C@](O)(Cn3cnc(Oc4ccc(F)cc4)c(N)c3=O)C(F)(F)C2)[C@H](c2ccccc2)C1` [Example 177, 5-amino-3-{[(4S)-3,3-difluoro-4-hydroxy-1-[(1R,2R,4R)-4-methoxy-4-[2-(2-methylpyrimidin-5-yl)ethynyl]-2-phenylcyclohexanecarbonyl]piperidin-4-yl]methyl}-6-(4-fluorophenoxy)-3,4-dihydropyrimidin-4-one] the same measures were 33.3 nM and 0.0218 µM.
